SMILES strings stand for the structures. “And” between values parts separate entries of the source, which are not always exact repeats. Equal values may be shown once.

Assay [1] has as its target T1, PTP-1b (protein tyrosine phosphatase-1b) (Homo sapiens, UniProt P18031).
T1 construct: purchased Bioneer, Korea
T1 sequence (P18031 1-435): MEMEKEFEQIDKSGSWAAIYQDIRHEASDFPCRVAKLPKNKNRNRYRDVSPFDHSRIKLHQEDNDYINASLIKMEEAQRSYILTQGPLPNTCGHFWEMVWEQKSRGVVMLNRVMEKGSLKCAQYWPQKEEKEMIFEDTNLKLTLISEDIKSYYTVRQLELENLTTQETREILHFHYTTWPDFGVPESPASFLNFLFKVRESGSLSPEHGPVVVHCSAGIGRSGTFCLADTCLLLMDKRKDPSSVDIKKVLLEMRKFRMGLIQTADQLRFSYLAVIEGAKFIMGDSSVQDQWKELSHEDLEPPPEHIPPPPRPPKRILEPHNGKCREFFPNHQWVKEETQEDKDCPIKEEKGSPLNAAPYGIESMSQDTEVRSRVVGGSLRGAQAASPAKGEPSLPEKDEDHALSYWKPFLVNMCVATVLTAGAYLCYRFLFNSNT
The experiment in a line: PTP-1b inhibitory activity, malachite green assay with [pTyr1146] insulin receptor substrate. Format: biochemical. As to conditions: PTP-1b (Bioneer), absorbance at 620 nm; read-out: IC50 against PTP-1b. How it is done:
In order to analyze the PTP-1b (protein tyrosine phosphatase-1b) inhibitory activity of sodium lobarate, the activity of the enzyme was spectroscopically measured.
Specifically, to 0.5 mg/Ml of PTP-1b (Bioneer, Korea) in PTP-1b buffer (20 mM Tris-HCl, pH 8.0, 0.75 mM NaCl, 0.5 mM EDTA, 5 mM β-mercaptoethanol, 50% glycerol), 0, 1, 3, 10, 30, 100, 300, 1,000 and 3,000 nM of sodium lobarate and the substrate [pTyr1146] insulin receptor (1142-1153, Sigma, USA) were added. Each mixture was allowed to react at room temperature for 10-30 minutes, and malachite green-molybdate dye solution was added thereto and reacted at room temperature for 10 minutes. After completion between PTP-1b, sodium lobarate and the substrate, the absorbance at 620 nm was measured.
The activity of the enzyme was spectroscopically measured to analyze the protein PTP-1b inhibitory activity of Lobarin.
Specifically, to 0.5 mg/Ml of PTP-1b (Bioneer, Korea) in PTP-1b buffer (20 mM Tris-HCL, pH 8.0, 0.75 mM NaCl, 0.5 mM EDTA, 5 mM β-mercaptoethanol, 50% glycerol), 0, 1, 3, 10, 30, 100, 300, 1000 or 3000 nM Lobarin and the substrate [pTyr1146] insulin receptor (1142-1153, Sigma, USA) were added. Each of the mixtures was allowed to react at room temperature for 10-30 minutes, and malachite green-molybdate dye solution was added thereto and reacted at room temperature for 10 minutes. After completion between PTP-1b, Lobarin and the substrate, the absorbance at 620 nm was measured.
The activity of the enzyme was spectroscopically measured to analyze the protein PTP-1b inhibitory activity of Lobarstin. Specifically, to 0.5 mg/Ml of PTP-1b (Bioneer, Korea) in PTP-1b buffer (20 mM Tris-HCL, pH 8.0, 0.75 mM NaCl, 0.5 mM EDTA, 5 mM β-mercaptoethanol, 50% glycerol), 0, 1, 3, 10, 30, 100, 300, 1000 or 3000 nM Lobarstin and the substrate [pTyr1146] insulin receptor (1142-1153, Sigma, USA) were added. […] After completion between PTP-1b, Lobarstin and the substrate, the absorbance at 620 nm was measured.

Assay [2] concerns db/db mice (type 2 diabetic model animals). The assay is described as follows: Blood glucose level following 6 hours of fasting after intraperitoneal administration. Format: in vivo. As to conditions: 10 mg/kg intraperitoneally daily; for increase in the fasting blood glucose level compared with control group: days 0-21, 6 hours of fasting; for average blood glucose level after 6 hours of fasting: db/db mice. How it is done:
In order to more accurately measure the antidiabetic effect of sodium lobarate, 200 μl of PBS for a control group and 10 mg/kg of sodium lobarate (PTP-1b activity inhibitory compound) for a test group was administered, respectively, intraperitoneally daily to 7-week-old male db/db mice (type 2 diabetic model animals, C57/BLKS/J-db/db, the Korea Research Institute of Bioscience and Biotechnology), and the blood glucose levels of the animals were measured twice a week. Herein, measurement of the blood glucose level was performed after 6 hours of fasting after intraperitoneal injection of sodium lobarate.
In order to more accurately measure the antidiabetic effect of Lobarin, 200 μl of PBS for a control group and 10 mg/kg of Lobarin for a test group was administered, respectively, intraperitoneally daily to 7-week-old male db/db mice (type 2 diabetic model animals, C57/BLKS/J-db/db, the Korea Research Institute of Bioscience and Biotechnology), and the blood glucose levels of the animals were measured twice a week. Herein, measurement of the blood glucose levels was performed after 6 hours of fasting after intraperitoneal injection of Lobarin.
In order to more accurately measure the antidiabetic effect of Lobarstin, 200 μl of PBS for a control group and 10 mg/kg of Lobarstin for a test group was administered intraperitoneally daily to 7-week-old male db/db mice (type 2 diabetic model animals, C57/BLKS/J-db/db, the Korea Research Institute of Bioscience and Biotechnology), and the blood glucose levels of the animals were measured twice a week. Herein, measurement of the blood glucose levels was performed after 6 hours of fasting after intraperitoneal injection of Lobarstin.

With `CCCCCc1c(Oc2cc(OC)cc3c2C(=O)OC3(O)CCCC)c(O)cc(O)c1C(=O)O` (stereo not drawn) [Lobarin], the concentration for half-maximal inhibition (IC50) in assay [1] is 149 nM and 155 nM. The “increase in the fasting blood glucose level compared with control group” value (from here on “increase”) in assay [2] is listed as “less than that in the control group”. Besides, the “average blood glucose level after 6 hours of fasting” value (shortened to “average blood glucose level”) in assay [2] (day 0) turned out to be 152 mg/dL; in assay [2] (day 3), 141 mg/dL; in assay [2] (day 7), 155 mg/dL; in assay [2] (day 10), 198 mg/dL; in assay [2] (day 14), 261 mg/dL; in assay [2] (day 17), 287 mg/dL. Also, the “average blood glucose level” value in assay [2] (day 21) was 340 mg/dL.

Turning to `CCCCCc1c2c(cc(O)c1C(=O)[O-])OC(=O)c1c(cc(OC)cc1C(=O)CCCC)O2.[Na+]` [sodium lobarate], in assay [1], the IC50 worked out at 350 nM. Further, the “increase” value in assay [2] is listed as “less than that in the control group”. Further, the “average blood glucose level” value in assay [2] (day 0) was found to be 141 mg/dL; in assay [2] (day 3), 142 mg/dL; in assay [2] (day 7), 185 mg/dL; in assay [2] (day 10) it was 206 mg/dL; in assay [2] (day 14), 232 mg/dL; in assay [2] (day 17), 236 mg/dL. The “average blood glucose level” value in assay [2] (day 21) came out at 313 mg/dL.

As for `CCC/C=C1/OC(=O)c2c(Oc3c(O)cc(O)c(C(=O)O)c3CCCCC)cc(OC)cc21` [Lobarstin], the IC50 in assay [1] is 155 nM. Further, in assay [2], the “increase” value is recorded as “less than that in the control group”. In addition, the “average blood glucose level” value amounted to 134 mg/dL in assay [2] (day 0), 182 mg/dL in assay [2] (day 7), 162 mg/dL in assay [2] (day 14) and 204 mg/dL in assay [2] (day 21).

For orientation: IC50 means the point on the concentration scale where inhibition reaches its midpoint.
